From PubChem BioAssay (NCI)
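GI50: concentration for 50% inhibition of growth. The concentration for full growth arrest is given as TGI.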

Columns and labels:
Assay in all cases: NCI tumour cell line growth inhibition, 384-well format
[1] = tested on: 786-0 renal
[2] = tested on: A498 renal
[3] = tested on: A549 NSCLC
[4] = tested on: ACHN renal
[5] = tested on: BT-549 breast
[6] = tested on: CCRF-CEM leukemia
[7] = tested on: COLO 205 colon
[8] = tested on: HCC-2998 colon
[9] = tested on: HCT-116 colon
[10] = tested on: HCT-15 colon
[11] = tested on: HL-60(TB) leukemia
[12] = tested on: HOP-62 NSCLC
[13] = tested on: HS 578T breast
[14] = tested on: HT29 colon
[15] = tested on: IGROV1 ovarian
[16] = tested on: K-562 leukemia
[17] = tested on: KM12 colon
[18] = tested on: LOX IMVI melanoma
[19] = tested on: M14 melanoma
[20] = tested on: MALME-3M melanoma
[21] = tested on: MCF7 breast
[22] = tested on: MDA-MB-231 breast
[23] = tested on: MDA-MB-435 melanoma
[24] = tested on: MDA-MB-468 breast
[25] = tested on: MOLT-4 leukemia
[26] = tested on: NCI-H322M lung
[27] = tested on: NCI-H460 NSCLC
[28] = tested on: NCI-H522 lung
[29] = tested on: OVCAR-3 ovarian
[30] = tested on: OVCAR-4 ovarian
[31] = tested on: OVCAR-5 ovarian
[32] = tested on: PC-3 prostate
[33] = tested on: RPMI-8226 leukemia
[34] = tested on: RXF 393 renal
[35] = tested on: SF-268 CNS
[36] = tested on: SF-295 CNS
[37] = tested on: SK-MEL-2 melanoma
[38] = tested on: SK-OV-3 ovarian
[39] = tested on: SN12C renal
[40] = tested on: SNB-19 CNS
[41] = tested on: SW-620 colon
[42] = tested on: T-47D breast
[43] = tested on: TK-10 renal
[44] = tested on: U251 glioblastoma
[45] = tested on: UACC-257 melanoma
[46] = tested on: UACC-62 melanoma
[47] = tested on: UO-31 renal

## COc1ccc([C@@H](O)c2cc(-c3ncnc4cc(N5CCOCC5)ccc34)c(F)cc2Cl)nn1
[1]
  GI50: 2.6 µM
  TGI: 17.8 µM
[2]
  GI50: 0.372 µM
  TGI: 1.99 µM
[3]
  GI50: 2.6 µM
  TGI: 12.3 µM
[4]
  GI50: 2.38 µM
  TGI: 16.5 µM
[5]
  GI50: 1.19 µM
  TGI: 9.64 µM
[6]
  GI50: 2.2 µM
  TGI: 7 µM
[7]
  GI50: 3.52 µM
  TGI: 11.1 µM
[8]
  GI50: 3.21 µM
  TGI: 11.4 µM
[9]
  GI50: 3.88 µM
  TGI: 16.4 µM
[10]
  GI50: 3.49 µM
  TGI: 15 µM
[11]
  GI50: 0.522 µM
  TGI: 1.94 µM
[12]
  GI50: 4.86 µM
  TGI: 26 µM
[13]
  GI50: 0.864 µM
  TGI: 3.7 µM
[14]
  GI50: 3.36 µM
  TGI: 16.3 µM
[15]
  GI50: 0.682 µM
  TGI: 2.45 µM
[16]
  GI50: 3.55 µM
  TGI: 22 µM
[17]
  GI50: 5.81 µM
  TGI: 19 µM
[18]
  GI50: 1.81 µM
  TGI: 4.44 µM
[19]
  GI50: 4.23 µM
  TGI: 16.9 µM
[20]
  GI50: 1.66 µM
  TGI: 10.7 µM
[21]
  GI50: 0.843 µM
  TGI: 10.4 µM
[22]
  GI50: 3.52 µM
  TGI: 37.4 µM
[23]
  GI50: 5.07 µM
  TGI: 20.6 µM
[24]
  GI50: 1.03 µM
  TGI: 4.31 µM
[25]
  GI50: 0.892 µM
  TGI: 2.31 µM
[26]
  GI50: 3.88 µM
  TGI: 21 µM
[27]
  GI50: 2.19 µM
  TGI: 13.1 µM
[28]
  GI50: 1.29 µM
  TGI: 8.26 µM
[29]
  GI50: 1.17 µM
  TGI: 9.62 µM
[30]
  GI50: 5.02 µM
  TGI: 26.2 µM
[31]
  GI50: 3.47 µM
  TGI: 21 µM
[32]
  GI50: 0.889 µM
  TGI: 11.1 µM
[33]
  GI50: 1.09 µM
  TGI: 2.86 µM
[34]
  GI50: 0.553 µM
  TGI: 3.3 µM
[35]
  GI50: 6.38 µM
  TGI: 26.8 µM
[36]
  GI50: 1.87 µM
  TGI: 12.6 µM
[37]
  GI50: 16.1 µM
  TGI: 31.2 µM
[38]
  GI50: 1.57 µM
  TGI: 6.2 µM
[39]
  GI50: 1.47 µM
  TGI: 17.1 µM
[40]
  GI50: 7.21 µM
  TGI: 28.3 µM
[41]
  GI50: 5.21 µM
  TGI: 18.9 µM
[42]
  GI50: 0.531 µM
  TGI: 2.61 µM
[43]
  GI50: 2.79 µM
  TGI: 14.6 µM
[44]
  GI50: 8.43 µM
  TGI: 26.1 µM
[45]
  GI50: 3.59 µM
  TGI: 17.8 µM
[46]
  GI50: 1.16 µM
  TGI: 11.8 µM
[47]
  GI50: 1.95 µM
  TGI: 11.6 µM
